{
  "source": "patent US8541543B2",
  "about": "“Peptides specific for hepatocellular carcinoma cells and applications thereof” (Academia Sinica, priority 2007, dated 2013)",
  "key": {"[1]": {"system": "advanced HCC", "settings": "HCC (ref 36); cited from earlier work"}, "[2]": {"system": "Mahlavu-derived HCC xenografts", "experiment": "In vivo peptide competitive inhibition of PC94 tumor binding", "design": "species or system SCID mice", "settings": "100 μg peptide co-injected with PC94, FIG. 3B", "method": "(§1) SCID mice (4-6 weeks old) were injected subcutaneously (s.c.) into the dorsal-lateral flank with 5×10^6 Mahlavu cells. Mice bearing Mahlavu-derived xenografts (500 mm^3) were injected intravenously (i.v.) with 2×10^9 pfu of PC94 or control phage. After perfusion, the organs (brain, heart, and lungs) and tumor tissue were removed, washed with cold PBS and weighed. The phage bound to the tumor tissue and organs were rescued by Escherichia coli ER2738 culture. The eluted phage particles were titrated on LB/IPTG/X-Gal plates. In peptide competitive inhibition experiments, 2×10^9 pfu of PC94 phage was co-injected with 100 μg of SP94 peptide or the control peptide. The tissue distribution of targeting phages in the tumor-bearing mice was examined by immunohistochemical staining. The tissue sections were incubated with mouse anti-M13 antibody, followed by incubation with biotinylated horse anti-mouse antibody (ABC kit; Vector Laboratories, Burlingame, Calif., USA) and washed with PBS, then immersed with ABC reagent. The sections were immersed in DAB solution plus 0.01% hydrogen peroxide, washed with PBS and mounted with 50% glycerol in PBS."}, "[3]": {"system": "Mahlavu-derived HCC xenografts", "experiment": "Immunohistochemical tissue distribution of targeting phages in tumor-bearing mice", "assay_type": "in vivo, SCID mice", "settings": "FIG. 3C, j", "method": "as §1"}},
  "data": [
    {"compound": "COc1cccc2c1C(=O)c1c(O)c3c(c(O)c1C2=O)C[C@@](O)(C(=O)CO)C[C@@H]3O[C@H]1C[C@H](N)[C@H](O)[C@H](C)O1", "note": "[doxorubicin]", "values": [
      {"measurement": "overall response rate", "setting": "[1]", "result": 18, "unit": "%"}
    ]},
    {"compound": "FPWFPLPSPYGN [control peptide]", "values": [
      {"measurement": "inhibition of PC94 binding to tumor tissue", "setting": "[2]", "result": "no such inhibitory effect"}
    ]},
    {"compound": "SFSIIHTPILPL [SP94]", "values": [
      {"measurement": "immuno-reactivity of tumor tissue when PC94 co-injected with peptide", "setting": "[3]", "result": "no immuno-reactivity was found in the tumor tissue"}
    ]}
  ]
}
